According to ChEMBL document CHEMBL5303765, “Data for DCP probe BAY-7081” (2023):

Experiments:
[1] = target: 3',5'-cyclic-AMP phosphodiesterase 4A (Homo sapiens) (UniProt P27815); test: Panlabs assay PDE4A1A; set-up: compound concentration 10 uM; details: at 10 µM
[2] = target: B2 bradykinin receptor (Homo sapiens) (UniProt P30411); test: Bradykinin B2 Eurofins Panlabs panel; details: Compound concentration 10.0 uM
[3] = target: Monoamine oxidase B (MAO-B) (Homo sapiens, UniProt P27338); test: Monoamine Oxidase MAO-B Eurofins Panlabs panel; details: compound concentration 10 uM
Monoamine oxidase B (MAO-B), sequence (P27338 whole entry): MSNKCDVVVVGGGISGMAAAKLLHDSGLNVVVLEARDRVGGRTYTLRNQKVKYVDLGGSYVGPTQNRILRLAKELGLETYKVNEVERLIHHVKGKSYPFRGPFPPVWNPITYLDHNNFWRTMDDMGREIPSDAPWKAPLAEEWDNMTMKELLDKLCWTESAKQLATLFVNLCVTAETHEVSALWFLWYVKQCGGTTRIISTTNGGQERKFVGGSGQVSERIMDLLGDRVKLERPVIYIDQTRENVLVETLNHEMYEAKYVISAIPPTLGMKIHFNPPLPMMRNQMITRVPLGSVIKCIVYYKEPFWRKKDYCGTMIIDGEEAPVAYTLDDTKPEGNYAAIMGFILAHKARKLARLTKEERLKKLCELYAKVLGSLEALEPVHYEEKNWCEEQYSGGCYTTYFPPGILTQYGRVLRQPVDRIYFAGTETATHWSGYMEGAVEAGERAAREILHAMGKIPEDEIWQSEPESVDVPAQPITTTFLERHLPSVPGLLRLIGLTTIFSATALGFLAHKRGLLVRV

Rattus norvegicus = species: Rattus norvegicus; test: Imidazoline I2, Central Eurofins Panlabs panel; details: Compound concentration 10.0 uM
[4] = target: GABA-A receptor; anion channel (Rattus norvegicus) (UniProt O09028+P15431+P18506+P18508+P19969+P20236+P23574+P23576+P28471+P28473+P30191+P62813+P63079+P63138+Q91ZM7+Q9ES14); test: GABAA, Muscimol, Central Eurofins Panlabs panel; assay type: protein-complex assay; details: Compound concentration 10.0 uM
[5] = target: Prostaglandin G/H synthase 2 (Homo sapiens) (UniProt P35354); test: Cyclooxygenase COX-2 Eurofins Panlabs panel; details: Compound concentration 10.0 uM
Prostaglandin G/H synthase 2 (Homo sapiens), sequence (P35354 whole entry): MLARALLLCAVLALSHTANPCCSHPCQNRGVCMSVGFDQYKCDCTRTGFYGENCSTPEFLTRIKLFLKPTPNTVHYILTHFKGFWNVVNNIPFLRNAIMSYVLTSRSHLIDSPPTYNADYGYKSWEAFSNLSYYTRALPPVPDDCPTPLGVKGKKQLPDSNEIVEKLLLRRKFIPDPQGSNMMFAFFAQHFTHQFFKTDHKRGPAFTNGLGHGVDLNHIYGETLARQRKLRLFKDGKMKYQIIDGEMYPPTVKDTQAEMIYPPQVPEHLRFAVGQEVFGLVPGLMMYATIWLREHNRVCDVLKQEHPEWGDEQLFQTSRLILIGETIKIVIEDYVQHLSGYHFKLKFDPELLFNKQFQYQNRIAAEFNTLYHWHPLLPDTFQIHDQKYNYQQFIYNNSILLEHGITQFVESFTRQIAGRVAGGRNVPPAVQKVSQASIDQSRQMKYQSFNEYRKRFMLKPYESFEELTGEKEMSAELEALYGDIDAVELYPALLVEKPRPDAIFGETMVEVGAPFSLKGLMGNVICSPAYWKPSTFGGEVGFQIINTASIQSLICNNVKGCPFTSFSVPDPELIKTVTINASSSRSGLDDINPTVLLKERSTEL

[6] = target: T1, Alpha-2C adrenergic receptor (Homo sapiens) (UniProt P18825); test: Adrenergic alpha2C Eurofins Panlabs panel; details: Compound concentration 10.0 uM
T1 sequence (whole entry): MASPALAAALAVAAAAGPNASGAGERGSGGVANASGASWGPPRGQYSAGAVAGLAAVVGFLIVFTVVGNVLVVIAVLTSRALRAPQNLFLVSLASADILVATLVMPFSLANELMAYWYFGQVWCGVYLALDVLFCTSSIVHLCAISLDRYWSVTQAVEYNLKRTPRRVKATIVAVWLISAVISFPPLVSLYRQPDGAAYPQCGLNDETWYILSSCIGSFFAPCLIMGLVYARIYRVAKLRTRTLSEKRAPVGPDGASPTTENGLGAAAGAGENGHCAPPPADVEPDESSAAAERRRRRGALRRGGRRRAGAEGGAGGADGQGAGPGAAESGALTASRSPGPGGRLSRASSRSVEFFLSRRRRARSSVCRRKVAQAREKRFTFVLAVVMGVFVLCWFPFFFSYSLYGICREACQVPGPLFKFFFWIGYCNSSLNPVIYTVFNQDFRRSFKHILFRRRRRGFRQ

[7] = target: Histamine H2 receptor (Homo sapiens) (UniProt P25021); test: Histamine H2 Eurofins Panlabs panel; details: Compound concentration 10.0 uM
Histamine H2 receptor (Homo sapiens), sequence (P25021 whole entry): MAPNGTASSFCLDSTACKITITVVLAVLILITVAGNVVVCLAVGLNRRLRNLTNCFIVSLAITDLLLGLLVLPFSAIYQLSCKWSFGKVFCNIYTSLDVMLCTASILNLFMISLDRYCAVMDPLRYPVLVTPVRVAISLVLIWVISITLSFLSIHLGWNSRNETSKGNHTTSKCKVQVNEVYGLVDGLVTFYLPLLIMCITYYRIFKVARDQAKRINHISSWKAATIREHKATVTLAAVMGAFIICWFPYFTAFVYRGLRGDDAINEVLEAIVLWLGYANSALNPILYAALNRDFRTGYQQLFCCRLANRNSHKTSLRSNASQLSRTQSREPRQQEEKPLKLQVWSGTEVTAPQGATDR

[8] = target: Histamine H1 receptor (Homo sapiens) (UniProt P35367); test: Histamine H1 Eurofins Panlabs panel; details: Compound concentration 10.0 uM
Histamine H1 receptor (Homo sapiens), sequence (P35367 whole entry): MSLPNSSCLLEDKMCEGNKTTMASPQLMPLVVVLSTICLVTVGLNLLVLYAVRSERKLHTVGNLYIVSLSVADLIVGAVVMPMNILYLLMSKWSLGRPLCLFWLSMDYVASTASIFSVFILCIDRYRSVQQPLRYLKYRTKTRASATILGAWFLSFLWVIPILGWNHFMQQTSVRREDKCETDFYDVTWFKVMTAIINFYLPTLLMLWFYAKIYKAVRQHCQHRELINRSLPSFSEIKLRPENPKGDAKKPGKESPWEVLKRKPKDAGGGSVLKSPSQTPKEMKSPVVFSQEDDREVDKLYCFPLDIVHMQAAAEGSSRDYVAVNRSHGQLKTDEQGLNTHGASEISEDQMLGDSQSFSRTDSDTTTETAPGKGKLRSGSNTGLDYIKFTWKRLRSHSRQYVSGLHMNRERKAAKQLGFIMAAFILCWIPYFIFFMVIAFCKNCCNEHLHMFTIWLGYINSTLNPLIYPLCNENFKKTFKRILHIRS

[9] = target: Interleukin-1 receptor type 1 (Mus musculus) (UniProt P13504); test: Interleukin IL-1 Eurofins Panlabs panel; details: Compound concentration 10.0 uM
Interleukin-1 receptor type 1 (Mus musculus), sequence (P13504 whole entry): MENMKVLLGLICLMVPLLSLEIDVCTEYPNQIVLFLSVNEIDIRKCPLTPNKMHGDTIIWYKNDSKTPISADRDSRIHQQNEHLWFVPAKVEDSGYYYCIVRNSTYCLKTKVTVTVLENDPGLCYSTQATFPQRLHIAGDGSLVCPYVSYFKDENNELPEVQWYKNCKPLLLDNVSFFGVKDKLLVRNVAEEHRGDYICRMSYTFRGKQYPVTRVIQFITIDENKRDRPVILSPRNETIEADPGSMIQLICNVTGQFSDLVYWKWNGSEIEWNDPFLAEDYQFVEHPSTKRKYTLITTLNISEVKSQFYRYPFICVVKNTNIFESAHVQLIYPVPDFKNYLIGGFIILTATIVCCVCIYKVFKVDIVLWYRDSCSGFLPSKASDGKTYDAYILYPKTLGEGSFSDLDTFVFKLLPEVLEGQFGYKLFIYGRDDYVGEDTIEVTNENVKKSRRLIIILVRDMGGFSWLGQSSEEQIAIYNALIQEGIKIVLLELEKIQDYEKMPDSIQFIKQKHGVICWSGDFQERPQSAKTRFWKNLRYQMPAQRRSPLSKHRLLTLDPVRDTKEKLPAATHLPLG

[10] = target: T2, D(4) dopamine receptor (Homo sapiens) (UniProt P21917); test: Dopamine D4.2 Eurofins Panlabs panel; details: Compound concentration 10.0 uM
T2 sequence (whole entry): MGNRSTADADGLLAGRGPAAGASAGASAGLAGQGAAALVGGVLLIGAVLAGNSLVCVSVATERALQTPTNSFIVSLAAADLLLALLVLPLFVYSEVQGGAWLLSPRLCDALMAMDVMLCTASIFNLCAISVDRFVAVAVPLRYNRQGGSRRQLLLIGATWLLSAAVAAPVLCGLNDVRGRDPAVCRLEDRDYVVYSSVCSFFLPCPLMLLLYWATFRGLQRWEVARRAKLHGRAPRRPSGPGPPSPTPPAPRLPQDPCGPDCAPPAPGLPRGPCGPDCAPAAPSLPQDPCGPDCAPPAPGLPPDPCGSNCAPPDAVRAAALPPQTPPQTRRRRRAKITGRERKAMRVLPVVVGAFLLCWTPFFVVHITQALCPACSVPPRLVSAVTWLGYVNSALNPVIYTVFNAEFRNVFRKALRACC

[11] = target: Growth hormone secretagogue receptor type 1 (Homo sapiens) (UniProt Q92847); test: Growth Hormone Secretagogue (GHS, Ghrelin) Eurofins Panlabs panel; details: Compound concentration 10.0 uM
Growth hormone secretagogue receptor type 1 (Homo sapiens), sequence (Q92847 whole entry): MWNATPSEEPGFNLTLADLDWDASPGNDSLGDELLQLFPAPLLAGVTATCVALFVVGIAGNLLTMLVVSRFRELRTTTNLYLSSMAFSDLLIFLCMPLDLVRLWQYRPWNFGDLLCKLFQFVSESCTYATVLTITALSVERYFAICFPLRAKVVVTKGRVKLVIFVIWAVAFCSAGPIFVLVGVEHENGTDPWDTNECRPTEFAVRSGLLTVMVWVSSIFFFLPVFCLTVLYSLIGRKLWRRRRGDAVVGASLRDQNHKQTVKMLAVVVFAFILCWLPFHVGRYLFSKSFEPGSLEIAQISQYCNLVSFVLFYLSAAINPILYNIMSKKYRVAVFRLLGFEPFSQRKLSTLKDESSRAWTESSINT

[12] = target: Histamine H3 receptor (Homo sapiens) (UniProt Q9Y5N1); test: Histamine H3 Eurofins Panlabs panel; details: Compound concentration 10.0 uM
Histamine H3 receptor (Homo sapiens), sequence (Q9Y5N1 whole entry): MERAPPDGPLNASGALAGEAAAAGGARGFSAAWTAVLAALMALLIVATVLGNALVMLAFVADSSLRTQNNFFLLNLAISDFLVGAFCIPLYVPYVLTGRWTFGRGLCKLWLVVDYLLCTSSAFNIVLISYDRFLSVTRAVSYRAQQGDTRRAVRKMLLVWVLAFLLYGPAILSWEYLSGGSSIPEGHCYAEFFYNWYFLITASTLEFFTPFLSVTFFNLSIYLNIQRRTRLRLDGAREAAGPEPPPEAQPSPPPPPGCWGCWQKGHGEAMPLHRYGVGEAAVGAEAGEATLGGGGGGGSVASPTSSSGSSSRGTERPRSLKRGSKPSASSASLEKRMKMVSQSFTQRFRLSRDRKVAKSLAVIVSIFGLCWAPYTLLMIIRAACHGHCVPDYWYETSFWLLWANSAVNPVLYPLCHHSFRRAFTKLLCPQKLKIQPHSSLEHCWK

[13] = target: Delta-type opioid receptor (Homo sapiens) (UniProt P41143); test: Opiate delta1 (OP1, DOP) Eurofins Panlabs panel; details: Compound concentration 10.0 uM
Delta-type opioid receptor (Homo sapiens), sequence (P41143 whole entry): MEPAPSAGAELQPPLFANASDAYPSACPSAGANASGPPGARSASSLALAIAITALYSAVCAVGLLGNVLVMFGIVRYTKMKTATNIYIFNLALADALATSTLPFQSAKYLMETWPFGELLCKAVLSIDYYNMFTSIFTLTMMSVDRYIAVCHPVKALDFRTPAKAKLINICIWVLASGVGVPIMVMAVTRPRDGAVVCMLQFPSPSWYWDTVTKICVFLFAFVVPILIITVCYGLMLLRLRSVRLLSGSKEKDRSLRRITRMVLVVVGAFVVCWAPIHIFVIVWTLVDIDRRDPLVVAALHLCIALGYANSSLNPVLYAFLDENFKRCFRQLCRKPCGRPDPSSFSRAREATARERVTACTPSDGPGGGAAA

[14] = target: T3, Alpha-2A adrenergic receptor (Homo sapiens) (UniProt P08913); test: Adrenergic alpha2A Eurofins Panlabs panel; details: Compound concentration 10.0 uM
T3 sequence (whole entry): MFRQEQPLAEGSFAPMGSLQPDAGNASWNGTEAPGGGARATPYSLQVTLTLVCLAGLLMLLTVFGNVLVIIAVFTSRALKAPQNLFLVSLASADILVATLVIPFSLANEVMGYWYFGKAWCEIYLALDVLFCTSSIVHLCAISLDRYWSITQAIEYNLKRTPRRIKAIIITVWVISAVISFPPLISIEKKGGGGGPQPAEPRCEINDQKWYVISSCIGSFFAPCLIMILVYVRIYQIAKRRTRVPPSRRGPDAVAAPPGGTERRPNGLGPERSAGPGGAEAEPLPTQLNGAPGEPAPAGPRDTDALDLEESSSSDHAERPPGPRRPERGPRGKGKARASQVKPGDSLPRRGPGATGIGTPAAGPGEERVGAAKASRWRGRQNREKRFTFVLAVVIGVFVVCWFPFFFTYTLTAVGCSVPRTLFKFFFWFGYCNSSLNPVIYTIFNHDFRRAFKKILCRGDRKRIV

[15] = target: T4, Alpha-2B adrenergic receptor (Homo sapiens) (UniProt P18089); test: Adrenergic alpha2B Eurofins Panlabs panel; details: Compound concentration 10.0 uM
T4 sequence (whole entry): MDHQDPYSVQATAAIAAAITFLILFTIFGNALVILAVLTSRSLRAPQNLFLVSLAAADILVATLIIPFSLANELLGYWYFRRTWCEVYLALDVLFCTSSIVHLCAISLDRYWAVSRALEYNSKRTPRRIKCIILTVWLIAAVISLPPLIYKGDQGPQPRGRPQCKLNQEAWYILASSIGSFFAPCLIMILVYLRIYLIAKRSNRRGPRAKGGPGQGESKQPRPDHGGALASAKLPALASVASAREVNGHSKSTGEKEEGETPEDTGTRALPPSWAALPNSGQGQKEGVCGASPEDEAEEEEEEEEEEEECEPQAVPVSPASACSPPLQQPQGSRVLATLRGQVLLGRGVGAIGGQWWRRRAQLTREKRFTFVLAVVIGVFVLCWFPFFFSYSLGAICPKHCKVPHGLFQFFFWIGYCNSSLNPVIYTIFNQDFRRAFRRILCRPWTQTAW

[16] = target: Endothelin-1 receptor (Homo sapiens) (UniProt P25101); test: Endothelin ETA Eurofins Panlabs panel; details: Compound concentration 10.0 uM
Endothelin-1 receptor (Homo sapiens), sequence (P25101 whole entry): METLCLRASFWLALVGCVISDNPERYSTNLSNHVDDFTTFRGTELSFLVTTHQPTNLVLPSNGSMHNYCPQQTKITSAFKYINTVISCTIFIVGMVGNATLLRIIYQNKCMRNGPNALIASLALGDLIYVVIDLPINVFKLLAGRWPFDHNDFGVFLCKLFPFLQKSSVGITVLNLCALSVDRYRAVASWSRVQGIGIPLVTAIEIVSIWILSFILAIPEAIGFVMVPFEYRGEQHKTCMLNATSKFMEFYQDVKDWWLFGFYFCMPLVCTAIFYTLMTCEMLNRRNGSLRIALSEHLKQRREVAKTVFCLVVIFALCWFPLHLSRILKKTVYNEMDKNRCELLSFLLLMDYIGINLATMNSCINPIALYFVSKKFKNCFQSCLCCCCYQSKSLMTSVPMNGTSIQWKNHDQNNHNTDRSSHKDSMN

[17] = target: Beta-2 adrenergic receptor (Homo sapiens) (UniProt P07550); test: Adrenergic beta2 Eurofins Panlabs panel; details: Compound concentration 10.0 uM
[18] = target: Prostaglandin E2 receptor EP1 subtype (Homo sapiens) (UniProt P34995); test: Prostanoid EP1 Eurofins Panlabs panel; details: Compound concentration 10.0 uM
Prostaglandin E2 receptor EP1 subtype (Homo sapiens), sequence (P34995 whole entry): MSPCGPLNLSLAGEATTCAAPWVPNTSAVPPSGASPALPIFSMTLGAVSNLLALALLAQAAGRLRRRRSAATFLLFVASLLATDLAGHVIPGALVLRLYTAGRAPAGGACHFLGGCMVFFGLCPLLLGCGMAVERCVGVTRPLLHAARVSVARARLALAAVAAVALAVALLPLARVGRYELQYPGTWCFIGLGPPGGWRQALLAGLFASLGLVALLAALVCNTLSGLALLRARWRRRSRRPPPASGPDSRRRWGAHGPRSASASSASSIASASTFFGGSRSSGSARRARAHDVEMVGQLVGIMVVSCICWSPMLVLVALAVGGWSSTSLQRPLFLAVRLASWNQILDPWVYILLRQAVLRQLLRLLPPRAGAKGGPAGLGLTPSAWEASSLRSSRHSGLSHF

B2 bradykinin receptor (Homo sapiens), sequence (P30411 whole entry): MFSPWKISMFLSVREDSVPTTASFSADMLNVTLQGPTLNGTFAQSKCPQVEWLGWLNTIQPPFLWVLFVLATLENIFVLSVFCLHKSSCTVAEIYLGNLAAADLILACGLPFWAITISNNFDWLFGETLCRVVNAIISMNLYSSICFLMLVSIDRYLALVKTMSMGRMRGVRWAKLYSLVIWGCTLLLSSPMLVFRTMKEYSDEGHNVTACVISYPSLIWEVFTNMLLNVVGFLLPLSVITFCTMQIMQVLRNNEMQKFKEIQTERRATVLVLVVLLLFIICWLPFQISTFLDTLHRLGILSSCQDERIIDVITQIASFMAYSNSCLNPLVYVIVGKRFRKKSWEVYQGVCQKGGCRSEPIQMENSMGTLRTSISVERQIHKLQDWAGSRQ

Row | SMILES | inhibition [1] [%] | inhibition [2] [%] | inhibition at 10 µM [3] [%] | inhibition (Rattus norvegicus) [%] | inhibition [4] [%] | inhibition [5] [%] | inhibition [6] [%] | inhibition [7] [%] | inhibition [8] [%] | inhibition [9] [%] | inhibition [10] [%] | inhibition [11] [%] | inhibition [12] [%] | inhibition [13] [%] | inhibition [14] [%] | inhibition [15] [%] | inhibition [16] [%] | inhibition [17] [%] | inhibition [18] [%]
1 | CCC[C@@H]1CNCc2c1[nH]c(=O)c(C#N)c2N1CCC2(CC1)CC2 | 6.8 |  |  |  |  |  |  |  |  |  |  |  |  |  |  |  |  |  | 
2 | CCC[C@H]1CNCc2c1[nH]c(=O)c(C#N)c2N1CCC2(CC1)CC2 |  | -4 | 2 | 32.5 | 25 | -5 | -1 | 3 | 5 | 14 | 2 | 9 | 5 | 5 | 28 | 7 | 3 | -6 | 8
